Measurements from patent US20100069325A1, “Pharmaceutical composition for treatment of chronic liver diseases and use thereof” (priority 2008, published 2010).

Legend:
[1] = system: rats having DMN-induced liver fibrosis; experiment: Comparison of therapeutic effect between composition and single component on rats having DMN-induced liver fibrosis (Example 5); format: in vivo, SD rats; conditions: DMN model; for ALT (activity of blood serum) / AST (activity of blood serum) / GGT (activity of blood serum) / Hyp (content in liver tissues) / Tbil (content of blood serum): gavage, two weeks of treatment, x ± s; for Degree of liver fibrosis S0 (number of rats) / Degree of liver fibrosis S1 (number of rats) / Degree of liver fibrosis S2 (number of rats) / Degree of liver fibrosis S3 (number of rats) / Degree of liver fibrosis S4 (number of rats): HE and Sirius red staining, S0-S4 staging; for Degree of liver fibrosis S0 (number of rats): stage S0; for Degree of liver fibrosis S1 (number of rats): stage S1; for Degree of liver fibrosis S2 (number of rats): stage S2; for Degree of liver fibrosis S3 (number of rats): stage S3; for Degree of liver fibrosis S4 (number of rats): stage S4
Source text: Modeling and grouping: 80 SD rats were randomly divided into a normal group (6) and modeling groups (74). The modeling method was the same as that in Example 1. Four weeks later, 4 rats from the modeling group died. The remaining […] rats were randomly divided into a model group, a Composition A group, groups having a single component of Composition A, a first control group of Fuzhenghuayu capsule, and a second control group of colchicines, each group 10 rats. The administered dose of colchicines was 0.1 mg/Kg, Fuzhenghuayu capsule 4.6 g/Kg. The Composition A group was administered Cordyceps sinensis polysaccharide 60 mg/Kg, Gypenoside 50 mg/Kg, and Amygdaloside 80 mg/Kg. The administered dose of the Gypenoside group was 200 mg/Kg, Amygdaloside 80 mg/Kg, and Cordyceps sinensis polysaccharide 60 mg/Kg. Each group was administered by gavage in a volume of 10 mL/Kg. The model group was administered the same volume of drinking water. After two weeks of treatment, the remaining 61 rats were anesthetized by intraperitoneal injection of 2% pentobarbital sodium. […] Liver tissue was also collected in centrifuge tubes (1.5 mL) for analyzing. Two liver tissues from a hepatic lobule was collected and immersed in a formalin solution for testing.
Observing index and method: the content of hydroxyproline (Hyp) in liver tissues (Jamall's method); liver function of blood serum; liver tissues were stained with HE and Sirius red respectively to determine the degree of liver fibrosis according to the S0-S4 staging criteria in literatures.
The obtained data was expressed as x±s and analysed statistically with software SPSS 12.0 for variance analysis and comparison between groups. The comparison of ranked data between groups was performed by Ridit analysis.

[2] = system: rats having CCl4-induced liver fibrosis; experiment: Comparison of therapeutic effect between composition and single component on rats having CCl4-induced liver fibrosis (Example 6); format: in vivo, SD rats; conditions: CCl4 model; for ALT (activity of blood serum) / AST (activity of blood serum) / Alb (content of blood serum) / GGT (activity of blood serum) / Hyp (content in liver tissues) / Tbil (content of blood serum): SD rats, three weeks of treatment while modeling, x ± s
Source text: Modeling and grouping: 86 SD rats were randomly divided into a normal group (6) and modeling groups (80). The modeling method was the same as that in Example 2. Six weeks later, 2 rats from the modeling group died. The remaining 78 rats were randomly divided into a model group (12), a Composition A group (11), groups having a single component of Composition A (each group with 11 rats), a first control group of Fuzhenghuayu capsule (11), and a second control group of colchicine (11). The administered dose was the same as those in Example 5. After three weeks of treatment while modeling, the remaining […] rats were anesthetized by intraperitoneal injection of 2% pentobarbital sodium. […] Liver tissue was also collected in centrifuge tubes (1.5 mL) for analyzing. Two liver tissues from a hepatic lobule was collected and immersed in a formalin solution for testing.
Observing index and method: the same as those in Example 5.
The obtained data was expressed as x±s and analysed statistically with software SPSS 12.0 for variance analysis and comparison between groups.

Compound	effect on DMN-induced liver fibrosis (in words) ([1]; SD rats)	ALT (activity of blood serum) ([1]; SD rats)	AST (activity of blood serum) ([1]; SD rats)	GGT (activity of blood serum) ([1]; SD rats)	Hyp (content in liver tissues) ([1]; SD rats)	Tbil (content of blood serum) ([1]; SD rats)	Degree of liver fibrosis S0 (number of rats) [1]	Degree of liver fibrosis S1 (number of rats) [1]	Degree of liver fibrosis S2 (number of rats) [1]	Degree of liver fibrosis S3 (number of rats) [1]	Degree of liver fibrosis S4 (number of rats) [1]	ALT (activity of blood serum) [2]	AST (activity of blood serum) [2]	Alb (content of blood serum) [2]	GGT (activity of blood serum) [2]	Hyp (content in liver tissues) [2]	Tbil (content of blood serum) [2]	collagen fibers, Sirius red staining of liver tissues ([1]; compared with the model group, FIG. 1)	collagen fibers, Sirius red staining of liver tissues ([2]; compared with the model group, FIG. 2)
N#C[C@H](O[C@@H]1O[C@H](CO[C@@H]2O[C@H](CO)[C@@H](O)[C@H](O)[C@H]2O)[C@@H](O)[C@H](O)[C@H]1O)c1ccccc1 [Amygdaloside]	can weaken the DMN-induced liver fibrosis	55.39 ± 15.56 U · ml^−1	69.13 ± 15.74 U · ml^−1	37.01 ± 19.92 U · ml^−1	323 ± 79 μg · g^−1 liver weight	0.95 ± 0.58 mg/dL	0	1	4	3	0	220.8 ± 47.4 ## U · ml^−1	249.1 ± 47.4 U · ml^−1	23.67 ± 2.84 g/L	16.10 ± 6.74 U · ml^−1	403 ± 89 # μg · g^−1 liver weight	0.85 ± 0.23 mg/dL	–	–
COc1cc2c(c(OC)c1OC)-c1ccc(OC)c(=O)cc1[C@@H](NC(C)=O)CC2 [Colchicine]	–	47.55 ± 17.47 U · ml^−1	62.81 ± 13.04 U · ml^−1	31.30 ± 17.21 U · ml^−1	300 ± 47 μg · g^−1 liver weight	0.86 ± 0.56 mg/dL	0	1	5	2	0	192.6 ± 60.9 # U · ml^−1	220.9 ± 60.9 # U · ml^−1	24.59 ± 2.11 ## g · l^−1	13.87 ± 9.13 U · ml^−1	373 ± 112 μg · g^−1 liver weight	0.74 ± 0.25 mg/dL	decreased as compared with the model group	decreased as compared with the model group
